Test results: patent EP0393786B1, “New retro-inverse, one- or more bond bearing analogues of thymopentin, a method for synthesizing the same and their employment for the preparation of pharmaceutical” (SCLAVO S.p.A., priority 1989, dated 1990)

Legend:
[1] = Stability to enzymic hydrolysis in heparinized human plasma (half-life); conditions: for half-life, times as much as that of thymopentin: relative to thymopentin
Description: The incubations were carried out at 37°C, and the drawings of the plasmatic mixtures, each one of 100 µl, were stopped at the various times by addition of trifluoroacetic acid in the ratio of 10%, with successive centrifugation at 10,000 x g, for five minutes. A portion of the supernatant is subjected to chromatography under conditions suitable to put into evidence the change in concentration of the peptide tested at the various time.

[2] = tested on: lymphocytes which secrete antibodies (PFC); assay: Hemolysis plate test (PFC) according to Jerne and Nordin, in vivo immunostimulating activity; set-up: species or system inbred C3H/HeNCrlBr male mice; conditions: 100 ng of peptide p.o. two hours after SRBC i.v.; spleen lymphocytes after four days; IgM PFC
Description: In particular, the so-called "hemolysis plate test" has been employed (PFC) performed according to the procedure disclosed by Jerne and Nordin.
Said test is carried out by administering through intravenous route to inbred C3H/HeNCrlBr male mice (Calco-Italia) aged 10-12 weeks and of body weight about 25 g, a pyrogen-free saline solution (0.2 ml) containing 1-2 x 10⁸ blood red cells of ram (SRBC). After two hours, groups of three mice each are treated p.o. (intragastric intubation) with 0.2 ml of saline solution (control) or with 0.2 ml of saline solution containing 100 ng of the peptide under test. After four days, the mice are sacrificed and the spleens are drawn and mechanically disrupted to separate the lymphocytes. The lymphocytes so isolated are washed with minimal soil containing Earle salts (MEM) (3 x 15 ml) and then resuspended into the same soil (1 ml) at a final concentration of 150,000 cells. Each cell suspension (0.1 ml) is then diluted 1/100 with MEM soil, and 100 µl of each dilution is added in double to wells of microplates containing 25 µl of MEM soil, 25 µl of a 10 % solution of SRBC antigens and 25 µl of guinea-pig complement at a final dilution of 1/64. The whole suspension is immediately transferred by capillarity from each well onto overlapped glass holder-slides. Such slides, with their edges sealed by means of paraffin, are then put for incubation into a thermostatic chamber at 37°C for one hour.
At the end of such time, the direct hemolysis plates are counted by means of a light-contrast viewer, such plates pointing out the number of lymphocytes which secrete antibodies (PFC). The antibodies so put into evidence are of the class of the IgM's, which are proper of the primary antibody response.

Row | Molecule | half-life ([1]; human) [min] | half-life, times as much as that of thymopentin [1] | half-life ([1]; test parallel to thymopentin) [min] | Plate formation % control [2] [% control]
1 | H-Arg-Lys-Asp-Val-Tyr-OH [TP5, reference compound] | – | – | – | 137
2 | CC(C)[C@H](NC(=O)[C@H](CC(=O)O)NC(=O)C(CCCCN)C(=O)NC(N)CCCNC(=N)N)C(=O)N[C@@H](Cc1ccc(O)cc1)C(=O)O (some centres unmarked) [reference compound] | 22 | – | – | –

The next lines start with results.

Row | half-life ([1]; human) [min] | half-life, times as much as that of thymopentin [1] | half-life ([1]; test parallel to thymopentin) [min] | Molecule | Plate formation % control [2] [% control]
3 | 2.5 | about 2 times | – | CC(C)[C@@H](NC(=O)C(Cc1ccc(O)cc1)C(=O)O)NC(=O)[C@H](CC(=O)O)NC(=O)[C@H](CCCCN)NC(=O)[C@@H](N)CCCNC(=N)N (stereo partly drawn) [Example 3, [gVal⁴,(R,S)mTyr⁵]TP5] | 190
4 | 10 | about 7 times | – | CC(C)C(C(=O)N[C@H](CC(=O)O)NC(=O)[C@H](CCCCN)NC(=O)[C@@H](N)CCCNC(=N)N)C(=O)N[C@@H](Cc1ccc(O)cc1)C(=O)O (stereo partly drawn) [Example 2, CH₃COOH.H-Arg-Lys-gAsp-(R,S)mVal-Tyr-OH] | 132
5 | > 360 | – | > 360 | CC(C)[C@@H](NC(=O)C(Cc1ccc(O)cc1)C(=O)O)NC(=O)[C@H](CC(=O)O)NC(=O)C(CCCCN)C(=O)N[C@@H](N)CCCNC(=N)N (stereo partly drawn) [Example 1, CH₃COOH.H-g-Arg-(R,S)mLys-Asp-gVal-(R,S)mTyr-OH] | 196
